Converted amounts (≈) assume the structure as drawn.
Legend:
[1] = Inhibition of HIV reverse transcriptase polymerase; set-up: species or system Human immunodeficiency virus
[2] = Inhibition of HIV integrase 3' processing activity; set-up: species or system Human immunodeficiency virus
[3] = Inhibition of HIV integrase strand transfer activity; set-up: species or system Human immunodeficiency virus
[4] = Inhibition of HIV reverse transcriptase RNase H; set-up: species or system Human immunodeficiency virus
B16 [5] = assay: Antitumor activity against mouse B16 cells implanted in mouse assessed as mouse survival at 1 mg/kg/day (reference value: 16 days); format: functional
[6] = Antifungal activity against Phellinus weirii; format: functional
Poria = assay: Antifungal activity against Poria monticola; format: functional
[7] = Antifungal activity against Polyporus versicolor; format: functional
Coniophora puteana = assay: Antifungal activity against Coniophora puteana; format: functional
[8] = Antifungal activity against Stereum sanguinolentum; format: functional
B16 [9] = assay: Cytotoxicity against mouse B16 cells; format: functional, cell-based
[10] = Inhibition of human ribonuclease H
[11] = Inhibition of HIV1 reverse transcriptase RNase H; set-up: species or system Human immunodeficiency virus 1
[12] = Inhibition of Escherichia coli ribonuclease H
[13] = Inhibition of HIV2 reverse transcriptase RNase H; set-up: species or system Human immunodeficiency virus 2
[14] = Inhibition of inositol monophosphatase (unknown origin); set-up: species or system Homo sapiens
[15] = Inhibition of phosphotidylcholine-preferring phospholipase C (unknown origin) at pH 7.3; set-up: species or system Homo sapiens
[16] = Inhibition of phosphotidylcholine-preferring phospholipase C (unknown origin) at pH 9.5; set-up: species or system Homo sapiens
Plasmodium falciparum [17] = assay: Antimalarial activity against chloroquine-resistant Plasmodium falciparum K1; format: functional, organism-based
Hepatitis B virus [18] = assay: Antiviral activity against HBV assessed as inhibition of viral replication at 10 uM in cell based assay; format: functional
[19] = Inhibition of XMRV RNaseH; set-up: species or system Xenotropic MuLV-related virus
[20] = Inhibition of hepatitis B virus genotype D RNaseH
MRC5 = assay: Cytotoxicity against human MRC5 cells; format: functional, cell-based
Plasmodium falciparum [21] = assay: Antimalarial activity against Plasmodium falciparum FCR-3/Gambia; format: functional, organism-based
Plasmodium falciparum [22] = assay: Antimalarial activity against Plasmodium falciparum infected in mouse; format: functional
Escherichia coli [23] = assay: Inhibition of Escherichia coli W677/JR76.2 2'-O-adenylyltransferase at 5.5 uM using aminoglycoside and [14C]ATP incubated for 15 mins by liquid scintillation counting based radiochemical assay
Escherichia coli [24] = assay: Antibacterial activity against Escherichia coli NIHJ; format: functional
[25] = target: T1, Dopamine beta-hydroxylase (Homo sapiens, UniProt P09172); assay: Inhibition of dopamine beta-oxygenase (unknown origin)
T1 sequence (P09172 whole entry): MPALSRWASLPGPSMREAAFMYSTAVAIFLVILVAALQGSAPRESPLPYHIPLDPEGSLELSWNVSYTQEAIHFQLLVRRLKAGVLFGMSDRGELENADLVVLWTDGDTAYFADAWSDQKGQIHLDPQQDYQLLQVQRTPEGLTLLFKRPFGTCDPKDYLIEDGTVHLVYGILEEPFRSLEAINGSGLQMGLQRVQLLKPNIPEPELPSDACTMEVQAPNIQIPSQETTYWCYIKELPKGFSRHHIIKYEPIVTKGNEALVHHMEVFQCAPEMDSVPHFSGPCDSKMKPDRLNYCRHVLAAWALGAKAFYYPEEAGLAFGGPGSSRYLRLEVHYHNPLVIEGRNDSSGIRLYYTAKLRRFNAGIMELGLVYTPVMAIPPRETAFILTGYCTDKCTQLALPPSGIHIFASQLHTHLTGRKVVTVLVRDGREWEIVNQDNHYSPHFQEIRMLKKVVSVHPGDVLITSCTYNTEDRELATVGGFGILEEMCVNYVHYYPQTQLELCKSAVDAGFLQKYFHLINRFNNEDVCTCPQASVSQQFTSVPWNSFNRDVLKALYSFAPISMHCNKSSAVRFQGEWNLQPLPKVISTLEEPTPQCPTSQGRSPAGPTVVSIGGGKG

Escherichia coli [26] = assay: Inhibition of Escherichia coli W677/JR76.2 2'-O-adenylyltransferase at 550 uM using aminoglycoside and [14C]ATP incubated for 15 mins by liquid scintillation counting based radiochemical assay
Escherichia coli [27] = assay: Inhibition of Escherichia coli W677/JR76.2 2'-O-adenylyltransferase at 55 uM using aminoglycoside and [14C]ATP incubated for 15 mins by liquid scintillation counting based radiochemical assay
Klebsiella pneumoniae = assay: Antibacterial activity against Klebsiella pneumoniae; format: functional
Pseudomonas aeruginosa = assay: Antibacterial activity against Pseudomonas aeruginosa; format: functional
Aspergillus fumigatus = assay: Antifungal activity against Aspergillus fumigatus IAM2350; format: functional
[28] = Inhibition of alkaline phosphatase (unknown origin); set-up: species or system Homo sapiens
Micrococcus luteus = assay: Antibacterial activity against Micrococcus luteus; format: functional
Staphylococcus aureus = assay: Antibacterial activity against Staphylococcus aureus; format: functional
Escherichia coli [29] = assay: Inhibition of Escherichia coli W677/JR76.2 2'-O-adenylyltransferase at 6.5 uM using aminoglycoside and [14C]ATP incubated for 15 mins by liquid scintillation counting based radiochemical assay
B16 [30] = assay: Inhibition of protein synthesis in mouse B16 cells; format: functional, cell-based
B16 [31] = assay: Inhibition of DNA synthesis in mouse B16 cells; format: functional, cell-based
B16 [32] = assay: Inhibition of RNA synthesis in mouse B16 cells; format: functional, cell-based
B16 [33] = assay: Antitumor activity against mouse B16 cells implanted in mouse assessed as mouse survival at 2.5 mg/kg/day (reference value: 16 days); format: functional
Escherichia coli [34] = assay: Inhibition of Escherichia coli W677/JR76.2 2'-O-adenylyltransferase at 650 uM using aminoglycoside and [14C]ATP incubated for 15 mins by liquid scintillation counting based radiochemical assay
[35] = test system: Human immunodeficiency virus 1; assay: Antiviral activity against HIV1 assessed as inhibition of viral replication in cell based assay; format: functional, organism-based
B16 [36] = assay: Antitumor activity against mouse B16 cells implanted in mouse assessed as mouse survival at 1.3 mg/kg/day (reference value: 16 days); format: functional
Escherichia coli [37] = assay: Inhibition of Escherichia coli W677/JR76.2 2'-O-adenylyltransferase at 730 uM using aminoglycoside and [14C]ATP incubated for 15 mins by liquid scintillation counting based radiochemical assay
Hepatitis B virus [38] = assay: Antiviral activity against HBV assessed as inhibition of viral replication in cell based assay; format: functional, organism-based
[39] = Inhibition of hepatitis B virus genotype H RNaseH
[40] = Toxicity in mouse assessed as induction of mortality after 72 hrs; format: organism-based; conditions: in vivo
[41] = Toxicity in mouse assessed as induction of mortality after 48 hrs; format: organism-based; conditions: in vivo
Escherichia coli [42] = assay: Inhibition of Escherichia coli W677/JR76.2 2'-O-adenylyltransferase at 7.3 uM using aminoglycoside and [14C]ATP incubated for 15 mins by liquid scintillation counting based radiochemical assay

With `CC(=O)Nc1ccc(-c2cc(-c3ccc(NC(C)=O)cc3)c(O)c(=O)c(O)c2O)cc1` the IC50 [1] was 52 µM, the IC50 [2] was 0.15 µM and the IC50 [3] was 1.7 µM. The IC50 [4] was 900 µM.

`CO[C@@]12[C@H](COC(N)=O)C3=C(C(=O)C(C)=C(N)C3=O)N1C[C@@H]1N[C@@H]12` [MITOMYCIN] showed an MST (B16 [5]) of 27 days.

With `CC(C)c1ccc(O)c(=O)cc1` [GAMMA-THUJAPLICIN] the MIC [6] was 50 µM (≈ 8.21 µg/mL), the MIC (Poria) was 10 µM (≈ 1.64 µg/mL) and the MIC [7] was 70 µM (≈ 11.5 µg/mL). The MIC (Coniophora puteana) was 10 µM (≈ 1.64 µg/mL) and the MIC [8] was 50 µM (≈ 8.21 µg/mL).

For `O=c1ccc(O)ccc1O`, the IC50 (B16 [9]) was 13 µM.

Molecule `CC(C)c1ccccc(=O)c1O` [ALPHA-THUJAPLICIN] has an IC50 [10] of 12 µM, an IC50 [11] of 50 µM and an IC50 [12] greater than 100 µM. The IC50 [13] was 33 µM.

In the case of `N#Cc1ccc(-c2ccc(O)c(=O)c(O)c2O)cc1`, the IC50 [14] is reported as 4 µM.

`O=c1c(O)ccc(O)cc1O` showed an IC50 (B16 [9]) of 2.5 µM.

For `O=C1C=CCN(O)C(=O)N1O`, the Ki [15] was 388 µM and the Ki [16] was 53 µM.

With `COc1cc(C(=O)O)cc(O)c(OC)c1=O` the IC50 (Plasmodium falciparum [17]) was 3.7 µM.

With `NCc1ccc(-c2ccc(Cc3cc(=O)n(O)c4ncccc34)cc2)cc1` the inhibition at 10 µM (Hepatitis B virus [18]) was 93%, the IC50 [19] was 0.41 µM and the IC50 [20] was 2.5 µM.

`C[C@H]1[C@H](OC(=O)CCC(=O)O)O[C@@H]2O[C@@]3(C)CC[C@H]4[C@H](C)CC[C@@H]1[C@@]24OO3` [ARTESUNATE] showed an IC50 (MRC5) of 36 µM, an IC50 (Plasmodium falciparum [21]) of 0.0025 µM and an IC50 (Plasmodium falciparum [17]) of 0.01 µM. It also gave an ED50 (Plasmodium falciparum [22]) of 1.7 mg/kg.

For `O=c1c(O)ccccc1O`, the inhibition (Escherichia coli [23]) was 8%, the IC50 (B16 [9]) was 2.2 µM and the IC50 (MRC5) was 1.7 µM. The Ki [15] was 16 µM, the MIC (Escherichia coli [24]) was 45 µM (≈ 6.22 µg/mL) and the IC50 [25] was 2 µM. It also gave an inhibition (Escherichia coli [26]) of 100%, an inhibition (Escherichia coli [27]) of 78% and an MIC (Klebsiella pneumoniae) of 360 µM (≈ 49.7 µg/mL). The IC50 [14] was 75 µM, the MIC (Pseudomonas aeruginosa) was 700 µM (≈ 96.7 µg/mL) and the IC50 (Plasmodium falciparum [21]) was 8.7 µM. For the same molecule, the IC50 (Plasmodium falciparum [17]) was 6.4 µM, the MIC (Aspergillus fumigatus) was 730 µM (≈ 101 µg/mL) and the IC50 [28] was 15 µM. The Ki [16] was 23 µM, the MIC (Micrococcus luteus) was 90 µM (≈ 12.4 µg/mL) and the MIC (Staphylococcus aureus) was 90 µM (≈ 12.4 µg/mL).

`O=c1cccccc1O` [TROPOLONE] showed an IC50 [25] of 2 µM, an IC50 [10] of 3 µM and an IC50 [14] greater than 1000 µM. The IC50 [11] was greater than 100 µM, the IC50 (Plasmodium falciparum [17]) was greater than 100 µM and the IC50 [28] was greater than 1000 µM. For the same molecule, the IC50 [12] was greater than 100 µM and the IC50 [13] was greater than 100 µM.

Molecule `O=C(O)c1cc(O)c(O)c(=O)c(O)c1` has an IC50 (MRC5) of 360 µM, an IC50 [14] of 10 µM and an IC50 (Plasmodium falciparum [21]) of 0.05 µM. The IC50 (Plasmodium falciparum [17]) was 0.05 µM and the ED50 (Plasmodium falciparum [22]) was less than 2 mg/kg.

In the case of `O=c1c(O)c(O)ccc(-c2cccc([N+](=O)[O-])c2)c1O`, the IC50 [1] is reported as 2.3 µM, the IC50 [2] is reported as 0.7 µM and the IC50 [3] is reported as 0.8 µM. It also gave an IC50 [4] of 1.3 µM.

`CC(=O)Oc1cccc(OC(C)=O)c(=O)c1OC(C)=O` gave an IC50 [1] of 30 µM, an IC50 [2] greater than 1000 µM and an IC50 [4] greater than 1000 µM.

For `O=c1c(O)cccc(O)c1O`, the inhibition (Escherichia coli [29]) was 2%, the IC50 (B16 [9]) was 0.26 µM and the IC50 (B16 [30]) was 70 µM. It also gave an IC50 [25] of 3 µM, an IC50 [14] of 8 µM and an IC50 (B16 [31]) of 60 µM. For the same molecule, the IC50 (B16 [32]) was 90 µM, the MST (B16 [33]) was 12 days and the inhibition (Escherichia coli [34]) was 54%. It also gave an IC50 [28] of 60 µM, an IC50 [35] of 0.3 µM and an IC50 [1] of 3.2 µM. The IC50 [2] was 40 µM, the IC50 [3] was 11 µM and the IC50 [4] was 20 µM. For the same molecule, the MST (B16 [36]) was 29 days.

`CC(C)c1ccc(O)c(=O)c(O)c1` [BETA-THUJAPLICINOL] showed an inhibition (Escherichia coli [37]) of 100%, an EC50 (Hepatitis B virus [38]) of 5 µM and an IC50 [39] of 2.3 µM. For the same molecule, the LD50 at 72 h [40] was 155 mg/kg, the MIC [6] was 100 µM (≈ 18 µg/mL) and the LD50 at 48 h [41] was 175 mg/kg. The IC50 [10] was 5.7 µM, the MIC (Poria) was 10 µM (≈ 1.8 µg/mL) and the MIC [7] was 800 µM (≈ 144 µg/mL). For the same molecule, the IC50 [11] was 0.2 µM, the IC50 [19] was 1.4 µM and the MIC (Coniophora puteana) was 10 µM (≈ 1.8 µg/mL). The IC50 [12] was 50 µM, the IC50 [13] was 0.8 µM and the inhibition (Escherichia coli [42]) was 31%. The MIC [8] was 330 µM (≈ 59.5 µg/mL), the IC50 [4] was 0.2 µM and the IC50 [20] was 5.9 µM.

Molecule `O=Cc1ccc(-c2ccc(O)c(=O)c(O)c2O)cc1` has an IC50 [1] of 0.6 µM, an IC50 [2] of 0.6 µM and an IC50 [3] of 1.2 µM. The IC50 [4] was 12 µM.
